Data published in US12202818B2, “Compounds and methods for CD73 modulation and indications therefor” (Opna Bio SA, priority 2020, dated 2025).

Legend:
human CD73 = biological target: T1, human CD73 (Homo sapiens, UniProt P21589); assay: Inhibitor activity against CD73 in cell based assay (CD73 expressing CHO-K1 cells); settings: CHO-K1 cells expressing human CD73, 150 μM AMP, 4 hours of incubation; read-out: CHO-K1 CELL_VARIANT: CD73 IC50
T1 construct: expressed in transfected cells
T1 sequence (P21589 27-549): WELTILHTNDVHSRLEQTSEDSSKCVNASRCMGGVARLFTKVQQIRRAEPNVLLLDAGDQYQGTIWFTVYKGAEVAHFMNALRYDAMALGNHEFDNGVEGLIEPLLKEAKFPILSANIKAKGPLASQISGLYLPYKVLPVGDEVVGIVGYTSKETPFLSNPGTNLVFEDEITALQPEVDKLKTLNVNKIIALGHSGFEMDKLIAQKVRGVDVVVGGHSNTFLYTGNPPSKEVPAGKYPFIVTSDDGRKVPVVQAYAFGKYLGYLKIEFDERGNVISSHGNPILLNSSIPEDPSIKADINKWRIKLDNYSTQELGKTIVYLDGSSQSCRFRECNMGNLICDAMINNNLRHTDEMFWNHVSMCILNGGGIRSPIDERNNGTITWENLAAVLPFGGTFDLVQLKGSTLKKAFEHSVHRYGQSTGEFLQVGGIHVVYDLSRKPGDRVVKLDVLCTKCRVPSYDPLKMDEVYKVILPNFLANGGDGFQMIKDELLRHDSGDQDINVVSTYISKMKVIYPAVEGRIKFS
Procedure, shortened: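 AMP (150 μM) was added alongside 8 titrated compound doses (maximum 10 μM, 1:3 steps) to CHO-K1 cells stably expressing human CD73. After 4 h, supernatant AMP was measured indirectly with CellTiter-Glo 2.0 plus 1 μM ATP (30 min, RT). % inhibition versus high and low controls was fitted nonlinearly for IC50.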

[1] = biological target: T2, Human CD73 (amino acid residues 27-549) (Homo sapiens, UniProt P21589); assay: CD73 enzymatic assay (luciferase-based indirect assay, CellTiter-Glo); format: biochemical; settings: 0.4 nM CD73, 150 μM AMP, 1 hour at room temperature
T2 construct: Human CD73 (amino acid residues 27-549); His tag (N); made in house; host or cells: E. coli
T2 sequence (P21589 27-549): T1 sequence (P21589 27-549)
Procedure, shortened: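 Luciferase-coupled readout: AMP left after CD73 turnover suppresses CellTiter-Glo signal (1 μM ATP final, 30 min RT). Reaction beforehand: 150 μM AMP, 0.4 nM E. coli-made His-tagged CD73 residues 27-549, test compound, HEPES pH 7.4 with Tween-20, 1 h RT. % inhibition fitted nonlinearly for IC50.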

Cc1nn(CCN2CCOCC2)c(C)c1-c1cc(F)nc(O[C@@H]2CCN(c3cn[nH]c(=O)c3Cl)C2)c1 [P-0160, (R)-4-chloro-5-(3-((4-(3,5-dimethyl-1-(2-morpholinoethyl)-1H-pyrazol-4-yl)-6-fluoropyridin-2-yl)oxy)pyrrolidin-1-yl)pyridazin-3(2H)-one]
IC50 (human CD73): 0.001 to 10 µM
IC50 [1]: 0.001 to 10 µM

N#CC1CC2CCC(C1)N2c1ccnc(O[C@@H]2CCN(c3cn[nH]c(=O)c3Cl)C2)c1 (stereo partly drawn) [P-0049, 8-(2-(((R)-1-(5-chloro-6-oxo-1,6-dihydropyridazin-4-yl)pyrrolidin-3-yl)oxy)pyridin-4-yl)-8-azabicyclo[3.2.1]octane-3-carbonitrile]
IC50 (human CD73): 0.001 to 10 µM
IC50 [1]: 0.001 to 10 µM

O=c1[nH]ncc(N2CC[C@@H](Oc3cc(C4=CCCCC4)ccn3)C2)c1Cl [P-0116, (R)-4-chloro-5-(3-((4-(cyclohex-1-en-1-yl)pyridin-2-yl)oxy)pyrrolidin-1-yl)pyridazin-3(2H)-one]
IC50 (human CD73): 0.001 to 10 µM
IC50 [1]: 0.001 to 10 µM

Cc1noc(C)c1-c1ccnc(O[C@H]2CN(c3cn[nH]c(=O)c3Cl)C[C@@H]2F)c1 [P-0180, 4-chloro-5-((3S,4S)-3-((4-(3,5-dimethylisoxazol-4-yl)pyridin-2-yl)oxy)-4-fluoropyrrolidin-1-yl)pyridazin-3(2H)-one]
IC50 (human CD73): 0.001 to 10 µM
IC50 [1]: 0.001 to 10 µM

O=c1[nH]ncc(N2CC[C@@H](Oc3cc(C4=CCNC4)ccn3)C2)c1Cl [P-0032, (R)-4-chloro-5-(3-((4-(2,5-dihydro-1H-pyrrol-3-yl)pyridin-2-yl)oxy)pyrrolidin-1-yl)pyridazin-3(2H)-one]
IC50 (human CD73): 0.001 to 10 µM
IC50 [1]: 0.001 to 10 µM

Cc1noc(C)c1-c1cc(O[C@@H]2CCN(c3cnn(CCN)c(=O)c3Cl)C2)ncn1 [P-0141, (R)-2-(2-aminoethyl)-4-chloro-5-(3-((6-(3,5-dimethylisoxazol-4-yl)pyrimidin-4-yl)oxy)pyrrolidin-1-yl)pyridazin-3(2H)-one]
IC50 (human CD73): 0.001 to 10 µM
IC50 [1]: 0.001 to 10 µM

O=c1[nH]ncc(N2CC[C@@H](Oc3cc(-c4ccc(S(=O)(=O)NC5CC5)cc4Cl)ccn3)C2)c1Cl [P-0230, (R)-3-chloro-4-(2-((1-(5-chloro-6-oxo-1,6-dihydropyridazin-4-yl)pyrrolidin-3-yl)oxy)pyridin-4-yl)-N-cyclopropylbenzenesulfonamide]
IC50 (human CD73): 0.001 to 10 µM
IC50 [1]: 0.001 to 10 µM

Cc1nn(CC2CCC2)c(C)c1-c1cc(F)nc(O[C@@H]2CCN(c3cn[nH]c(=O)c3Cl)C2)c1 [P-0183, (R)-4-chloro-5-(3-((4-(1-(cyclobutylmethyl)-3,5-dimethyl-1H-pyrazol-4-yl)-6-fluoropyridin-2-yl)oxy)pyrrolidin-1-yl)pyridazin-3(2H)-one]
IC50 (human CD73): 0.001 to 10 µM
IC50 [1]: 0.001 to 10 µM

N#CCC1CCN(c2ccnc(O[C@@H]3CCN(c4cn[nH]c(=O)c4Cl)C3)c2)CC1 [P-0030, (R)-2-(1-(2-((1-(5-chloro-6-oxo-1,6-dihydropyridazin-4-yl)pyrrolidin-3-yl)oxy)pyridin-4-yl)piperidin-4-yl)acetonitrile]
IC50 (human CD73): 0.001 to 10 µM
IC50 [1]: 0.001 to 10 µM

Cc1nn(CCN2CCCC2)c(C)c1-c1cc(F)nc(O[C@@H]2CCN(c3cn[nH]c(=O)c3Cl)C2)c1 [P-0159, (R)-4-chloro-5-(3-((4-(3,5-dimethyl-1-(2-(pyrrolidin-1-yl)ethyl)-1H-pyrazol-4-yl)-6-fluoropyridin-2-yl)oxy)pyrrolidin-1-yl)pyridazin-3(2H)-one]
IC50 (human CD73): 0.001 to 10 µM
IC50 [1]: 0.001 to 10 µM

CNC(=O)Cn1nc(C)c(-c2ccnc(O[C@@H]3CCN(c4cn[nH]c(=O)c4Cl)C3)c2)c1C [P-0041, (R)-2-(4-(2-((1-(5-chloro-6-oxo-1,6-dihydropyridazin-4-yl)pyrrolidin-3-yl)oxy)pyridin-4-yl)-3,5-dimethyl-1H-pyrazol-1-yl)-N-methylacetamide]
IC50 (human CD73): 0.001 to 10 µM
IC50 [1]: 0.001 to 10 µM

Cc1noc(C)c1-c1ccnc(O[C@@H]2CCN(c3cn[nH]c(=O)c3Cl)C2)c1 [P-0201, (R)-4-chloro-5-(3-((4-(3,5-dimethylisoxazol-4-yl)pyridin-2-yl)oxy)pyrrolidin-1-yl)pyridazin-3(2H)-one]
IC50 (human CD73): 0.001 to 10 µM
IC50 [1]: 0.001 to 10 µM

CCn1nc(C)c(-c2ccnc(O[C@@H]3CCN(c4cn[nH]c(=O)c4Cl)C3)c2)c1C [P-0077, (R)-4-chloro-5-(3-((4-(1-ethyl-3,5-dimethyl-1H-pyrazol-4-yl)pyridin-2-yl)oxy)pyrrolidin-1-yl)pyridazin-3(2H)-one]
IC50 (human CD73): 0.001 to 10 µM
IC50 [1]: 0.001 to 10 µM

Cc1nn(CC2(F)COC2)c(C)c1-c1ccnc(O[C@@H]2CCN(c3cn[nH]c(=O)c3Cl)C2)c1 [P-0130, (R)-4-chloro-5-(3-((4-(1-((3-fluorooxetan-3-yl)methyl)-3,5-dimethyl-1H-pyrazol-4-yl)pyridin-2-yl)oxy)pyrrolidin-1-yl)pyridazin-3(2H)-one]
IC50 (human CD73): 0.001 to 10 µM
IC50 [1]: 0.001 to 10 µM

Cc1nn(C)c(C)c1-c1cc(O[C@H]2CN(c3cnn(CCO)c(=O)c3Cl)C[C@@H]2F)ncn1 [P-0144, 4-chloro-5-((3S,4S)-3-fluoro-4-((6-(1,3,5-trimethyl-1H-pyrazol-4-yl)pyrimidin-4-yl)oxy)pyrrolidin-1-yl)-2-(2-hydroxyethyl)pyridazin-3(2H)-one]
IC50 (human CD73): 0.001 to 10 µM
IC50 [1]: 0.001 to 10 µM

NC1CCC(c2ccnc(O[C@@H]3CCN(c4cn[nH]c(=O)c4Cl)C3)c2)CC1 (stereo partly drawn) [P-0059, (R)-5-(3-((4-(4-aminocyclohexyl)pyridin-2-yl)oxy)pyrrolidin-1-yl)-4-chloropyridazin-3(2H)-one]
IC50 (human CD73): 0.001 to 10 µM
IC50 [1]: 0.001 to 10 µM

O=c1[nH]ncc(N2CC[C@@H](Oc3cc(C4CCNCC4)ccn3)C2)c1Cl [P-0071, (R)-4-chloro-5-(3-((4-(piperidin-4-yl)pyridin-2-yl)oxy)pyrrolidin-1-yl)pyridazin-3(2H)-one]
IC50 (human CD73): 0.001 to 10 µM
IC50 [1]: 0.001 to 10 µM

Cc1nn(C)c(C)c1-c1cc(O[C@@H]2CCN(c3cn[nH]c(=O)c3Cl)C2)ncc1F [P-0171, (R)-4-chloro-5-(3-((5-fluoro-4-(1,3,5-trimethyl-1H-pyrazol-4-yl)pyridin-2-yl)oxy)pyrrolidin-1-yl)pyridazin-3(2H)-one]
IC50 (human CD73): 0.001 to 10 µM
IC50 [1]: 0.001 to 10 µM

Cc1nn(C2(CC#N)CCC2)c(C)c1-c1ccnc(O[C@@H]2CCN(c3cn[nH]c(=O)c3Cl)C2)c1 [P-0036, (R)-2-(1-(4-(2-((1-(5-chloro-6-oxo-1,6-dihydropyridazin-4-yl)pyrrolidin-3-yl)oxy)pyridin-4-yl)-3,5-dimethyl-1H-pyrazol-1-yl)cyclobutyl)acetonitrile]
IC50 (human CD73): 0.001 to 10 µM
IC50 [1]: 0.001 to 10 µM

O=c1[nH]ncc(N2CC[C@@H](Oc3cc(-c4ccc(C(F)(F)F)cc4Cl)ccn3)C2)c1Cl [P-0232, (R)-4-chloro-5-(3-((4-(2-chloro-4-(trifluoromethyl)phenyl)pyridin-2-yl)oxy)pyrrolidin-1-yl)pyridazin-3(2H)-one]
IC50 (human CD73): 0.001 to 10 µM
IC50 [1]: 0.001 to 10 µM

Cc1nn(C(CO)CI)c(C)c1-c1ccnc(O[C@@H]2CCN(c3cn[nH]c(=O)c3Cl)C2)c1 (stereo partly drawn) [P-0088, 4-chloro-5-((3R)-3-((4-(1-(1-hydroxy-3-iodopropan-2-yl)-3,5-dimethyl-1H-pyrazol-4-yl)pyridin-2-yl)oxy)pyrrolidin-1-yl)pyridazin-3(2H)-one]
IC50 (human CD73): 0.001 to 10 µM
IC50 [1]: 0.001 to 10 µM

Cc1nn(C(C)C)c(C)c1-c1ccnc(O[C@@H]2CCN(c3cn[nH]c(=O)c3Cl)C2)c1 [P-0027, (R)-4-chloro-5-(3-((4-(1-isopropyl-3,5-dimethyl-1H-pyrazol-4-yl)pyridin-2-yl)oxy)pyrrolidin-1-yl)pyridazin-3(2H)-one]
IC50 (human CD73): 0.001 to 10 µM
IC50 [1]: 0.001 to 10 µM

Cn1cncc1-c1cc(F)nc(O[C@@H]2CCN(c3cn[nH]c(=O)c3Cl)C2)c1 [P-0173, (R)-4-chloro-5-(3-((6-fluoro-4-(1-methyl-1H-imidazol-5-yl)pyridin-2-yl)oxy)pyrrolidin-1-yl)pyridazin-3(2H)-one]
IC50 (human CD73): 0.001 to 10 µM
IC50 [1]: 0.001 to 10 µM

Cc1n[nH]c(C)c1-c1cc(F)nc(O[C@@H]2CCN(c3cn[nH]c(=O)c3Cl)C2)c1 [P-0193, (R)-4-chloro-5-(3-((4-(3,5-dimethyl-1H-pyrazol-4-yl)-6-fluoropyridin-2-yl)oxy)pyrrolidin-1-yl)pyridazin-3(2H)-one]
IC50 (human CD73): 0.001 to 10 µM
IC50 [1]: 0.001 to 10 µM

Cc1noc(C)c1-c1cc(O[C@H]2CN(c3cnn(CCO)c(=O)c3Cl)C[C@@H]2F)ncn1 [P-0145, 4-chloro-5-((3S,4S)-3-((6-(3,5-dimethylisoxazol-4-yl)pyrimidin-4-yl)oxy)-4-fluoropyrrolidin-1-yl)-2-(2-hydroxyethyl)pyridazin-3(2H)-one]
IC50 (human CD73): 0.001 to 10 µM
IC50 [1]: 0.001 to 10 µM
